Data as given in ChEMBL document CHEMBL1138184, “Synthesis and structure-activity relationship studies of 1,3-diarylprop-2-yn-1-ones: dual inhibitors of cyclooxygenases and lipoxygenases” (J Med Chem, 2006).

Legend:
5-lipoxygenase = molecular target: T1, 5-lipoxygenase (Solanum tuberosum, UniProt O49150); experiment: Inhibitory activity against potato 5LOX
T1 sequence (O49150 whole entry): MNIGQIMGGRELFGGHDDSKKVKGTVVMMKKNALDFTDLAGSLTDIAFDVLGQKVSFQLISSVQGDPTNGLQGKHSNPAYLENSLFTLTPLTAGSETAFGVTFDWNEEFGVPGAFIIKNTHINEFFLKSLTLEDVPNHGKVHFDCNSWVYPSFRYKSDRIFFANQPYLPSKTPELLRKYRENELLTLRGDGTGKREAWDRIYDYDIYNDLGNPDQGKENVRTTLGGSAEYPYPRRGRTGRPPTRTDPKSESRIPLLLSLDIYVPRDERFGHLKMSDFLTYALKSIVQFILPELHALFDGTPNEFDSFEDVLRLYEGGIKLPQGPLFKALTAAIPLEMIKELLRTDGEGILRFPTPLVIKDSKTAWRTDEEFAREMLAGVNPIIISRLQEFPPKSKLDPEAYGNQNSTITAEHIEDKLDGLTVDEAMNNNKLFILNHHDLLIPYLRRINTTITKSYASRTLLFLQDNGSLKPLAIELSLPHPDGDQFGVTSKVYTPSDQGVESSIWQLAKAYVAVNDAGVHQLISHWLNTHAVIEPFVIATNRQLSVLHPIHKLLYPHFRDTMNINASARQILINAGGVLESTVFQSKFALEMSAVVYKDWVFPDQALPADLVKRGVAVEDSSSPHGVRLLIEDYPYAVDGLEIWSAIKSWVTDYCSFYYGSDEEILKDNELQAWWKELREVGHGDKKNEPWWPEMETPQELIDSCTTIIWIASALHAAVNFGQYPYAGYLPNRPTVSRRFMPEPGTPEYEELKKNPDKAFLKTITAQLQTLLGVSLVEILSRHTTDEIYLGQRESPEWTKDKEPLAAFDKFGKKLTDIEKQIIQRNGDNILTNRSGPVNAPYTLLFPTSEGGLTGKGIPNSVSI

Rattus norvegicus [1] = experiment: Inhibitory activity against 4% NaCl-induced abdominal constriction in Sprague-Dawley rat after 30 min of 30 mg/kg, po; assay type: functional; conditions: Abdomen, 0.5 h
Rattus norvegicus [2] = experiment: Anti-inflammatory activity against carrageenan-induced edema in Sprague-Dawley rat paw after 3 hrs of 30 mg/kg, po; assay type: functional
Rattus norvegicus [3] = experiment: Inhibitory activity against 4% NaCl-induced abdominal constriction in Sprague-Dawley rat after 60 min of 30 mg/kg, po; assay type: functional; conditions: Abdomen, 1 h
[4] = molecular target: T2, Prostaglandin G/H synthase 1 (Ovis aries, UniProt P05979); experiment: Inhibitory activity against ovine COX1
T2 sequence (P05979 whole entry): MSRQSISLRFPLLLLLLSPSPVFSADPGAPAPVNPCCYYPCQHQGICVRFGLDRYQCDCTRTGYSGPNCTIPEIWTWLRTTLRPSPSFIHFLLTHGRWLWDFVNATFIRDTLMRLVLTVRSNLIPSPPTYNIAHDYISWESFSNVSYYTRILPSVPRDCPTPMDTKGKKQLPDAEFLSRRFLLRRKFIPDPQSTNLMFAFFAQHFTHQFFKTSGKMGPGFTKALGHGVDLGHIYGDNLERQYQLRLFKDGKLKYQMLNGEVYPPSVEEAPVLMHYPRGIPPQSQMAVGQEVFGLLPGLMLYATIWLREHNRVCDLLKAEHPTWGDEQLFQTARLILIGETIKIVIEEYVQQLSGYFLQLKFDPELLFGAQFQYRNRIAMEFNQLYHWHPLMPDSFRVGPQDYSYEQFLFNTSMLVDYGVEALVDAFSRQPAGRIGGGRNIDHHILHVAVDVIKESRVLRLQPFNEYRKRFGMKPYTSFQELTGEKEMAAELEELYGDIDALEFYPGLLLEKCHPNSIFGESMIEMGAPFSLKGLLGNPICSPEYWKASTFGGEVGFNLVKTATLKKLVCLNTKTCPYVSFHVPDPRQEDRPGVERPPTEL

[5] = molecular target: T3, Seed linoleate 13S-lipoxygenase-1 (Glycine max, UniProt P08170)
T3 sequence (P08170 whole entry): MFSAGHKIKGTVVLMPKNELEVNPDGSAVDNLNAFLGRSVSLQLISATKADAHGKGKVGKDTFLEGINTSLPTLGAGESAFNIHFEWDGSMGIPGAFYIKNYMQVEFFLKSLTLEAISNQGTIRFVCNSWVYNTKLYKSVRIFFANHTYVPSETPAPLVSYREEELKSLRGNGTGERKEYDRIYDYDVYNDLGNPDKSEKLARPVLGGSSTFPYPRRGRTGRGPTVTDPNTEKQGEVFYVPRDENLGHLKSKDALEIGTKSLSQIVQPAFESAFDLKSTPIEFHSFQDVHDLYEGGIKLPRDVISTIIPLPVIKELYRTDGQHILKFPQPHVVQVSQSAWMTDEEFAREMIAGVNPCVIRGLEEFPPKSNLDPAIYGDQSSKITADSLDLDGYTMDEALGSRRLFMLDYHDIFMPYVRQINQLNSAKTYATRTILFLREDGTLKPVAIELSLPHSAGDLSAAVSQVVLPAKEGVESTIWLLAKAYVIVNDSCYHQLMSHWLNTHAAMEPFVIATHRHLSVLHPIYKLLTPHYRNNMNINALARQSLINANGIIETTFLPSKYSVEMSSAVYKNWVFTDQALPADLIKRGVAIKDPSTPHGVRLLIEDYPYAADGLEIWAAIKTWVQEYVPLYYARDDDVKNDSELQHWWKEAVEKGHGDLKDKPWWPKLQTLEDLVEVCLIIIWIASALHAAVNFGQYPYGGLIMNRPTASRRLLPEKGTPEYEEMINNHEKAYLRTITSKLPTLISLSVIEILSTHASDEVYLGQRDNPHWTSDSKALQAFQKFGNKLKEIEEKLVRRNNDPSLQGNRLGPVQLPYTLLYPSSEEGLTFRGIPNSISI
Description: Inhibitory activity against soybean 15LOX

Rattus norvegicus [6] = species on record: Rattus norvegicus; experiment: animal or person; conditions: Sprague-Dawley, Abdomen, po, 0.5 h, read-out: Inhibition
Description: Inhibitory activity against 4% NaCl-induced abdominal constriction in Sprague-Dawley rat after 30 min of 5 mg/kg, po

Structure (SMILES)	IC50 (5-lipoxygenase)	inhibition in vivo at 30 mg/kg (Rattus norvegicus [1])	inhibition in vivo at 30 mg/kg (Rattus norvegicus [2])	inhibition in vivo at 30 mg/kg (Rattus norvegicus [3])	ED50 (Rattus norvegicus [2])	IC50 [4]	IC50 [5]	inhibition in vivo at 5 mg/kg (Rattus norvegicus [6])
CS(=O)(=O)c1ccc(C#CC(=O)c2ccc(C(F)(F)F)cc2)cc1	> 10 µM	38%	16.2%	66.2%	–	–	–	–
CS(=O)(=O)c1ccc(C#CC(=O)c2ccc(O)cc2)cc1	0.3 µM	52.4%	37.4%	56.6%	51.3 mg/kg	–	–	–
COc1cccc(C(=O)C#Cc2ccc(S(C)(=O)=O)cc2)c1	9 µM	72.6%	24.2%	54.7%	–	–	–	–
COc1cc(C(=O)C#Cc2ccc(S(C)(=O)=O)cc2)cc(OC)c1OC	7 µM	60.2%	35.7%	46.2%	113 mg/kg	–	–	–
Cc1ccc(C(=O)C#Cc2ccc(S(C)(=O)=O)cc2)cc1	> 10 µM	–	–	–	–	–	–	–
COc1ccc(C(=O)C#Cc2ccc(S(C)(=O)=O)cc2)cc1O	> 10 µM	–	–	–	–	–	–	–
CS(=O)(=O)c1ccc(C#CC(=O)c2ccc(F)c(F)c2)cc1	0.4 µM	50.8%	6.8%	46.1%	–	–	–	–
COc1ccc(C(=O)C#Cc2ccc(S(C)(=O)=O)cc2)cc1OC	1 µM	–	–	–	–	3.3 µM	> 10 µM	–
CS(=O)(=O)c1ccc(C#CC(=O)c2ccc([N+](=O)[O-])cc2)cc1	6.2 µM	–	–	–	–	0.25 µM	> 10 µM	–
CCCCc1ccc(C(=O)C#Cc2ccc(S(C)(=O)=O)cc2)cc1	4.5 µM	–	–	–	–	> 100 µM	> 10 µM	–
CS(=O)(=O)c1ccc(C#CC(=O)c2cccc3ccccc23)cc1	> 10 µM	56.4%	8.8%	40.3%	–	> 100 µM	> 10 µM	–
CS(=O)(=O)c1ccc(C#CC(=O)c2ccno2)cc1	1.5 µM	–	–	–	–	32.2 µM	> 10 µM	–
CC(C)c1ccc(C(=O)C#Cc2ccc(S(C)(=O)=O)cc2)cc1	–	40.7%	48.1%	53.7%	35 mg/kg	9.2 µM	0.36 µM	–
COC(=O)c1ccc(C(=O)C#Cc2ccc(S(C)(=O)=O)cc2)cc1	> 10 µM	56.2%	21.5%	71.2%	–	> 100 µM	5 µM	–
CS(=O)(=O)c1ccc(C#CC(=O)c2ccoc2)cc1	0.1 µM	57.7%	26.4%	76.6%	–	1 µM	> 10 µM	–
CS(=O)(=O)c1ccc(C#CC(=O)c2ccc(S(C)(=O)=O)cc2)cc1	> 10 µM	–	–	–	–	> 100 µM	> 10 µM	–
COc1ccc(C(=O)C#Cc2ccc(S(C)(=O)=O)cc2)c2ccccc12	> 10 µM	56.7%	24%	36.7%	–	> 100 µM	0.3 µM	–
CSc1ccc(C(=O)C#Cc2ccc(S(C)(=O)=O)cc2)cc1	–	–	–	–	–	9.2 µM	0.36 µM	–
CCCc1ccc(C(=O)C#Cc2ccc(S(C)(=O)=O)cc2)cc1	3.2 µM	–	–	–	–	3.2 µM	3.2 µM	–
CS(=O)(=O)c1ccc(C#CC(=O)c2ccc(C#N)cc2)cc1	–	48.6%	29.6%	36.2%	90 mg/kg	–	–	–
CS(=O)(=O)c1ccc(C#CC(=O)c2cccc(O)c2)cc1	0.3 µM	–	–	–	–	–	–	–
COc1ccc(C(=O)C#Cc2ccc(S(C)(=O)=O)cc2)cc1	> 10 µM	42.7%	30.2%	38.6%	60.1 mg/kg	–	–	–
COc1cc(C(=O)C#Cc2ccc(S(C)(=O)=O)cc2)ccc1O	> 10 µM	15.4%	26%	45.8%	–	–	–	–
CS(=O)(=O)c1ccc(C#CC(=O)c2cccc([N+](=O)[O-])c2)cc1	> 10 µM	–	–	–	–	2 µM	3.5 µM	–
CS(=O)(=O)c1ccc(C#CC(=O)c2ccc(F)cc2)cc1	> 10 µM	83.8%	26.3%	72%	–	–	–	–
CC(=O)Oc1ccccc1C(=O)O [ASPIRIN]	–	29.7%	–	46.4%	129 mg/kg	–	–	–
O=C(O)/C=C/c1ccc(O)c(O)c1 [CAFFEIC ACID]	–	47.2%	8.2%	58.3%	–	–	–	–
Cc1ccc(-c2cc(C(F)(F)F)nn2-c2ccc(S(N)(=O)=O)cc2)cc1 [CELECOXIB]	–	–	–	–	–	–	–	69.3%
CC(Cc1ccc(O)c(O)c1)C(C)Cc1ccc(O)c(O)c1 (stereo unspecified) [NORDIHYDROGUAIARETIC ACID]	–	45.8%	15.1%	62.5%	205 mg/kg	–	–	–
